Test results from US20240116921A1, “LACTAM (HETERO)[…] DERIVATIVES AS INHIBITORS OF ERBB2” (EnLiven Therapeutics, Inc., priority 2020, published 2024).

Columns and labels:
[1] = target: Ba/F3 ERBB2 A775_G776insYVMA (Homo sapiens, UniProt P04626, DUP772-775, cells depend on it); assay: Cell viability assay, Ba/F3 ERBB2 A775_G776insYVMA; assay type: cell-based, mouse; settings: Ba/F3 ERBB2 YVMA cells, cell viability, 72 hours, CellTiter Glo; Table B5; read-out: Ba/F3 ERBB2 YVMA, IC50
Summary of the method: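 Viability after 72 h compound treatment (37 °C, 5% CO2) was quantified by CellTiter-Glo luminescence of intracellular ATP, with sigmoidal dose-response fitting. Cells were retrovirally engineered Ba/F3 lines whose growth depends on the mutant human ERBB2 in place of IL-3, plated at 3000 per well.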

[2] = target: T1, phosphorylated ERBB2 (pERBB2) (Homo sapiens, UniProt P04626); assay: Detection of phosphorylated ERBB2 (pERBB2) by ELISA in BT-474 cells; assay type: cell-based; settings: four hours incubation
T1 construct: endogenous in cells; host or cells: BT-474
T1 sequence (P04626 23-1255): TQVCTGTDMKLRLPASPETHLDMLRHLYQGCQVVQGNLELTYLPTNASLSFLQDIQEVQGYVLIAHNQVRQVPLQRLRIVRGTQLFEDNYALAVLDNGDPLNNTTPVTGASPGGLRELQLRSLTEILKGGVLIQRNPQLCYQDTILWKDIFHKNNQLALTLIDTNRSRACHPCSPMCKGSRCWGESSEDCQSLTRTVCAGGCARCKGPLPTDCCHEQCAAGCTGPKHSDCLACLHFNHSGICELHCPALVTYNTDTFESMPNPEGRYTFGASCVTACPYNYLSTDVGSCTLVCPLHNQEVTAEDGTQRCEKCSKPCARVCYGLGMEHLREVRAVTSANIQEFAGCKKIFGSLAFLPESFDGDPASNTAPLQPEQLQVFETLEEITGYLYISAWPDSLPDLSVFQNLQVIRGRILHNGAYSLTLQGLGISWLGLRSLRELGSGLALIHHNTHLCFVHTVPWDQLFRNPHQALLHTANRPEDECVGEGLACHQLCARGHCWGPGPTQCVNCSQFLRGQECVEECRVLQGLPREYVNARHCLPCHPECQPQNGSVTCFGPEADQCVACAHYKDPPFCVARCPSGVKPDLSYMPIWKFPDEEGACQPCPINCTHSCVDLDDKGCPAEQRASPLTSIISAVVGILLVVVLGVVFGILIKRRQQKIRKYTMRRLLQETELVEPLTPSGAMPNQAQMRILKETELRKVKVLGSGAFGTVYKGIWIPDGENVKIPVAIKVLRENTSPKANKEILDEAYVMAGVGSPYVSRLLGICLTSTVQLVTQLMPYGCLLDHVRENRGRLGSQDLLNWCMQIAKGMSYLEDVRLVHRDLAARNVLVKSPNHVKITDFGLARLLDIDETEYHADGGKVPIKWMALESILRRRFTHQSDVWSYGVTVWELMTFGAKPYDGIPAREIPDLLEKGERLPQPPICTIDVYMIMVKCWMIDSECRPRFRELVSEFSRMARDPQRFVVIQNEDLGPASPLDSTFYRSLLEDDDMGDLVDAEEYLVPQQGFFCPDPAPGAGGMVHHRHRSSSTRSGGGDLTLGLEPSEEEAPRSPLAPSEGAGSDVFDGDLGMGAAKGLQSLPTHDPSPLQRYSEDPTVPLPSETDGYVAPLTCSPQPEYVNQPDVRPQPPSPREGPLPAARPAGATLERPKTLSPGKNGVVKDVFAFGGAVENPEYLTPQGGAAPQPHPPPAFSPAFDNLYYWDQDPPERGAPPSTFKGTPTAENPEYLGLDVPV
Summary of the method: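 Phospho-ERBB2 in lysates was quantified by sandwich ELISA (A450, TMB) after 4 h compound exposure at 37 °C of BT-474 cells seeded at 2.0×10^4 per well. Compounds tested at 10 µM to 0.01 nM final in four-fold steps; activity normalized to DMSO (0.1%) high and cell-free low controls.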

[3] = target: T2, phosphorylated EGFR (pEGFR) (Homo sapiens, UniProt P00533); assay: Detection of phosphorylated EGFR (pEGFR) in EGF-stimulated A431 cells; assay type: cell-based; settings: A431 cells (10% FBS), 4 hours incubation, EGF 30 ng/mL 10 minutes, AlphaLISA
T2 construct: performed to measure phosphorylated EGFR levels using A431 cells (10% FBS); endogenous in cells; host or cells: A431
T2 sequence (P00533 25-1210): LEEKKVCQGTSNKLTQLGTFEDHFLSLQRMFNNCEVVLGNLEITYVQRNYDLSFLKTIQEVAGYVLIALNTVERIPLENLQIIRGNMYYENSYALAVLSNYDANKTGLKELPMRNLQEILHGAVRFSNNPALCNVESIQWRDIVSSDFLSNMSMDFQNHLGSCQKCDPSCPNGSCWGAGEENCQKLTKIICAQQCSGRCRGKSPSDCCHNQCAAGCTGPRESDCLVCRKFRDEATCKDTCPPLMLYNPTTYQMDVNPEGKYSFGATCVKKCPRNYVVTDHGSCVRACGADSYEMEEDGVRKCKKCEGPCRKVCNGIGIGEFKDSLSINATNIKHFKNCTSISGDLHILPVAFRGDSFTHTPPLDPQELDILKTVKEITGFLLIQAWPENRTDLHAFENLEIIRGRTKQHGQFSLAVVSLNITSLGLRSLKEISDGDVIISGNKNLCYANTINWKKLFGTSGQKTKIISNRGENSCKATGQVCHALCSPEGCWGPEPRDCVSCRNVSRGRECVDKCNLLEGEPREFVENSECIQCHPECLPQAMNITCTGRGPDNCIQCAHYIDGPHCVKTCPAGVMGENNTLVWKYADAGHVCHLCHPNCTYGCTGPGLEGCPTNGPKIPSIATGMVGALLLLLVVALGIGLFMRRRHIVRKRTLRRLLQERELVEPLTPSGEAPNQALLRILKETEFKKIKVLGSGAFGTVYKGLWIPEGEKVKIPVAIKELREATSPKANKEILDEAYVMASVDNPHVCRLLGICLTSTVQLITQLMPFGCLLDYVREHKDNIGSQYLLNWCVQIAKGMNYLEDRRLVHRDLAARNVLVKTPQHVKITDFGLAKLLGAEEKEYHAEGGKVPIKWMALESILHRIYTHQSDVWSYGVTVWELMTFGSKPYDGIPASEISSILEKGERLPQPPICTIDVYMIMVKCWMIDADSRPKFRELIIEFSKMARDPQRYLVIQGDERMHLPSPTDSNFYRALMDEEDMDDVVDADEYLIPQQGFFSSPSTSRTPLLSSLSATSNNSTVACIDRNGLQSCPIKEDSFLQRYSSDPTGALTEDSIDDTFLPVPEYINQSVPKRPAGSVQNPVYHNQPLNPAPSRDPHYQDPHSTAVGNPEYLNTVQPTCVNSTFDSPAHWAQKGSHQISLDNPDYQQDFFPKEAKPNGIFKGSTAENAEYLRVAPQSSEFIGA
Summary of the method: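 AlphaLISA read-out of EGFR phosphorylation after a 10-min EGF pulse (30 ng/mL final). A431 cells (10% FBS) had been exposed to compound for 4 h at 37 °C. IC50 was fitted from % inhibition normalised to DMSO and staurosporine control lysates.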

Ba/F3 ERBB2 A775_G776insYVMA, sequence (P04626 with tags, fused parts or gaps DUP772-775): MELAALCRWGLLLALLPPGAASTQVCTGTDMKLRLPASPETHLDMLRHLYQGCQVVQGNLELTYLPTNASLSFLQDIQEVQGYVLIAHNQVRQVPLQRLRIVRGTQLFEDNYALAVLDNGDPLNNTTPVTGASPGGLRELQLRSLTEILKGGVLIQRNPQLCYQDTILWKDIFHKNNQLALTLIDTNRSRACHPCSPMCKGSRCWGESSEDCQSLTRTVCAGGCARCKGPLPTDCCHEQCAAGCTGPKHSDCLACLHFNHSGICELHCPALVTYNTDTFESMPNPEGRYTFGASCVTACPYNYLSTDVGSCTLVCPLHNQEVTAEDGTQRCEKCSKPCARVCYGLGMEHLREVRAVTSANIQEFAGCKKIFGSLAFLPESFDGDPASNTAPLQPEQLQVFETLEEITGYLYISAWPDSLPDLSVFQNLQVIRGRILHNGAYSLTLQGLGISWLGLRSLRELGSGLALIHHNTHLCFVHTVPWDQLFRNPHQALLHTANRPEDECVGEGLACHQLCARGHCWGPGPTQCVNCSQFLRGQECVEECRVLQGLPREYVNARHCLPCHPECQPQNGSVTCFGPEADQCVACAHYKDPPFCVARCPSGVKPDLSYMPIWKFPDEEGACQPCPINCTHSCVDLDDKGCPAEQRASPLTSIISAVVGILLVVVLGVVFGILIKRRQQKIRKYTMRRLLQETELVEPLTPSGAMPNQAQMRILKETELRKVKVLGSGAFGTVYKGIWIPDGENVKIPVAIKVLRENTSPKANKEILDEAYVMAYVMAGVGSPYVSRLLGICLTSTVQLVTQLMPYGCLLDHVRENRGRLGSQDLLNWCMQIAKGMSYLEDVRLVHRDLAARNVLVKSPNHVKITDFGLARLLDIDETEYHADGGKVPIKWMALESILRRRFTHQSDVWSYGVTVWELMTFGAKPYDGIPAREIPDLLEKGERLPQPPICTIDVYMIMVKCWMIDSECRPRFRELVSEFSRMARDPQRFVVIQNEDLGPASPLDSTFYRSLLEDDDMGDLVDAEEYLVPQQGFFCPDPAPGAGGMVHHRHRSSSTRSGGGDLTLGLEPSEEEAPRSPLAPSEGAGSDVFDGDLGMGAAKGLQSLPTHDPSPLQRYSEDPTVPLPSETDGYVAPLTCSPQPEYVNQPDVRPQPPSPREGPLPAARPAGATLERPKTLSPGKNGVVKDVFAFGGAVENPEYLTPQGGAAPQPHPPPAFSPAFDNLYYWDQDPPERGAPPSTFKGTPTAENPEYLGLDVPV

Row | Compound | GI50 [1] [nM] | IC50 [2] [nM] | IC50 [3] [nM]
1 | Cc1cc(Nc2ncnc3cnc(N4CC/C(=C\CN(C)C)C4=O)cc23)ccc1Oc1cccnc1 [Compound 80, (3E)-3-[2-(dimethylamino)ethylidene]-1-(4-{[3-methyl-4-(pyridin-3-yloxy)phenyl]amino}pyrido[3,4-d]pyrimidin-6-yl)pyrrolidin-2-one] | 35.5 | 66.1 | 704
2 | Cc1cc(Nc2ncnc3ccc(N4CC/C(=C\CN(C)C)C4=O)nc23)ccc1Oc1ccn2c(C)cnc2c1 [Compound 81, (E)-3-(2-(dimethylamino)ethylidene)-1-(4-((3-methyl-4-((3-methylimidazo[1,2-a]pyridin-7-yl)oxy)phenyl)amino)pyrido[3,2-d]pyrimidin-6-yl)pyrrolidin-2-one] | 3.86 | 72.3 | 1130
3 | Cc1cc(Nc2ncnc3cnc(N4CC/C(=C\CN(C)C)C4=O)cc23)ccc1Oc1ccn2c(C)cnc2c1 [Compound 82, (3E)-3-[2-(dimethylamino)ethylidene]-1-(4-{[3-methyl-4-({3-methylimidazo[1,2-a]pyridin-7-yl}oxy)phenyl]amino}pyrido[3,4-d]pyrimidin-6-yl)pyrrolidin-2-one] | 6.39 | 54.1 | 3990
4 | Cc1cc(Nc2ncnc3ccc(N4CC/C(=C/CN(C)C)C4=O)nc23)ccc1Oc1ccc2c(c1)ncn2C [Compound 83, (Z)-3-(2-(dimethylamino)ethylidene)-1-(4-((3-methyl-4-((1-methyl-1H-benzo[d]imidazol-5-yl)oxy)phenyl)amino)pyrido[3,2-d]pyrimidin-6-yl)pyrrolidin-2-one] | 4.73 | 44.2 | 6030
5 | C=C1CCN(c2nc3c(Nc4ccc(Oc5ccc6c(c5)ncn6C)c(C)c4)ncnc3s2)C1=O [Compound 84, 1-[7-({3-methyl-4-[(1-methyl-1,3-benzodiazol-5-yl)oxy]phenyl}amino)-[1,3]thiazolo[5,4-d]pyrimidin-2-yl]-3-methylidenepyrrolidin-2-one] | 45 | 425 | > 10000
6 | C=C1CCN(c2ccc3ncnc(Nc4ccc(Oc5ccc6c(c5)ncn6C)c(C)c4)c3n2)C1=O [Compound 87, 1-(4-((3-methyl-4-((1-methyl-1H-benzo[d]imidazol-5-yl)oxy)phenyl)amino)pyrido[3,2-d]pyrimidin-6-yl)-3-methylenepyrrolidin-2-one; formic acid] | 23 | 87.2 | 8160
7 | Cc1cc(Nc2ncnc3ccc(N4CC/C(=C\[C@@H]5CCCN5C)C4=O)nc23)ccc1Oc1ccn2ncnc2c1 [Compound 89, (S,E)-1-(4-((4-([1,2,4]triazolo[1,5-a]pyridin-7-yloxy)-3-methylphenyl)amino)pyrido[3,2-d]pyrimidin-6-yl)-3-((1-methylpyrrolidin-2-yl)methylene)pyrrolidin-2-one] | 1.87 | 28.9 | 699
8 | Cc1cc(Nc2ncnc3ccc(N4CC/C(=C\[C@H]5CCCN5C)C4=O)nc23)ccc1Oc1ccn2ncnc2c1 [Compound 90, (R,E)-1-(4-((4-([1,2,4]triazolo[1,5-a]pyridin-7-yloxy)-3-methylphenyl)amino)pyrido[3,2-d]pyrimidin-6-yl)-3-((1-methylpyrrolidin-2-yl)methylene)pyrrolidin-2-one] | 10.8 | 17.1 | 5770
9 | CN(C)C/C=C1\CCN(c2ccc3ncnc(Nc4ccc(Oc5ccc6c(c5)ncn6C)c(F)c4)c3n2)C1=O [Compound 91, (3E)-3-[2-(dimethylamino)ethylidene]-1-[4-({3-fluoro-4-[(1-methyl-1,3-benzodiazol-5-yl)oxy]phenyl}amino)pyrido[3,2-d]pyrimidin-6-yl]pyrrolidin-2-one] | 2.08 | 18.9 | > 10000
